From article PMC11272733, “In vitro assessment of thyroid peroxidase inhibition by chemical exposure: comparison of cell models and detection methods” (Archives of Toxicology, 2024)
Like-named read-outs stand apart in the source and are kept apart here.

What was measured:
[1] = target: T1, human TPO (HEK-TPOA7 cell lysate) (Homo sapiens, UniProt P07202); experiment: AUR-TPO assay, HEK-TPOA7 cell lysate; format: biochemical
T1 construct: We have transfected the full length of TPO, which is 933 amino acids; expressed in transfected cells; host or cells: HEK293T (clone HEK-TPOA7), lentiviral transduction, CMV promoter
T1 sequence (P07202 19-933): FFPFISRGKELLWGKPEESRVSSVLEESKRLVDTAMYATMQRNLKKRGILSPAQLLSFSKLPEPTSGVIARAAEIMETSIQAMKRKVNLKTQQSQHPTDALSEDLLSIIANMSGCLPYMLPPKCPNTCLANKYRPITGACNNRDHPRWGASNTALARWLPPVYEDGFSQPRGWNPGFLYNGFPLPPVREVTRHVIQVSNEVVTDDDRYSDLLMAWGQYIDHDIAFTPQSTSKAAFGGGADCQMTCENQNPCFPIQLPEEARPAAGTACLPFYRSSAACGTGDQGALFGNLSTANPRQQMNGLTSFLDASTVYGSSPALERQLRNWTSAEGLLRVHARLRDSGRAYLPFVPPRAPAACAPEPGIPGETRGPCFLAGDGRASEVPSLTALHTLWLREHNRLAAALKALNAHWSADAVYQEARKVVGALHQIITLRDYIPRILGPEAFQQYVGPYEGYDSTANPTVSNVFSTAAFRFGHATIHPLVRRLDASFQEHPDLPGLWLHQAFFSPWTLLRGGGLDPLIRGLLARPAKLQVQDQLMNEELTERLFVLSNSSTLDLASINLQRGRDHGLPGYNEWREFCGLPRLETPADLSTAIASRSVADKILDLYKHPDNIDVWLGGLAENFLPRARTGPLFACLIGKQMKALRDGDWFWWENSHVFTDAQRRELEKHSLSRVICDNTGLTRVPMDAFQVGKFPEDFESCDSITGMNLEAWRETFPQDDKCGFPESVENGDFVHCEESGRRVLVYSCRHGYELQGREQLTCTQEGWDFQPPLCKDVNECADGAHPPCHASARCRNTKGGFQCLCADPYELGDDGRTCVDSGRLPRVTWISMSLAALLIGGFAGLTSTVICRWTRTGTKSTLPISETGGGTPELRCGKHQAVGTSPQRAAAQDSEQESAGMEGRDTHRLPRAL
Source text: (§1) A human TPO (hTPO) sequence was obtained from NCBI (NM_000547.5) and it was used for the production of lentiviral vector by VectorBuilder (Malvern, USA) containing the gene of interest under the transcriptional control of CMV promotor and EGFP gene linked with puromycin resistance gene under control of EFS promotor (pLV[Exp]-CMV > {NM_000547_5}-EFS > EGFP:T2A:Puro). The purified vector was used to produce lentiviral particles in Lenti-X cell line (TakaraBio Inc., Göteborg, Sweden). […] The medium was replaced 3 h after exposure. The conditioned lentiviral medium was harvested 48 and 72 h later, frozen and stored at − 80 °C. HEK293T cells were exposed to the conditioned lentiviral medium supplemented with Polybrene (10 µg/mL, Merck, Prague, Czech Republic). After 24 h, the medium was replaced with fresh medium with puromycin (Invivogen, Toulouse, France) as a selection factor. After the puromycin treatment, cells were sorted on a FACS sorter FACSAria Fusion (BD Biosciences, Prague, Czech Republic) to obtain GFP-expressing cell clones that were further characterized.
Lower final volume and concentration of H2O2 were used. […] Nonspecific influence of the chemicals themselves on the fluorescence signal was assessed by measuring the fluorescence signal after co-incubating the chemicals (30 min at 37 °C) with 0.3 µM Resorufin and 40 µM H2O2 with the same excitation/emission spectra as with the AUR.
Test of the effect of H2O2 concentration on the TPO activity measurement in the AUR assay: To assess the impact of H2O2 level on the AUR assay, a subset of chemicals (Table S6) was subjected to analysis at two H2O2 concentrations, 40 µM and 300 µM, to evaluate any variance in response.

[2] = target: T2, peroxidase activity (human TPO) in HEK-TPOA7 cell lysate (Homo sapiens, UniProt P07202); experiment: TPO luminol (Lumi) assay, HEK-TPOA7 cell lysate; format: biochemical
T2 construct: We have transfected the full length of TPO, which is 933 amino acids; expressed in transfected cells; host or cells: HEK293T (clone HEK-TPOA7), lentiviral transduction, CMV promoter
T2 sequence (P07202 19-933): T1 sequence (P07202 19-933)
Source text: as §1

[3] = system: TPO (rat thyroid microsomes); parameters: method as in Friedman et al. 2016; conditions: microsomes from 120 pooled rat thyroids; ref Friedman et al. 2016; cited from earlier work
[4] = Solubility of triclosan (PubChem); format: physicochemical; conditions: 20 °C; equivalent of 10 mg/L; ref PubChem
TPO (CHO-TPO) = system: TPO (CHO-TPO); parameters: method as in Dong et al. (2020); conditions: ref Dong et al. (2020); read-out: AUR assay IC50, CHO-TPO; cited from earlier work
TPO (LentiX-TPO) = system: TPO (LentiX-TPO); parameters: method as in Dong et al. (2020); conditions: ref Dong et al. (2020); read-out: AUR assay IC50, LentiX-TPO; cited from earlier work
[5] = system: peroxidase activity (TPO) in FRTL-5 cell lysate; experiment: TPO luminol (Lumi) assay, FRTL-5 cell lysate
Procedure: The FRTL-5 (RRID:CVCL_0265), a spontaneously immortalized rat thyroid follicular cell line obtained from Sigma-Aldrich, was cultured in Coon F12 medium (Sigma-Aldrich) supplemented with L-Glutamine, hydrocortisone, somatostatin, TSH and 10% FBS.
(§2) HEPES solution (Sigma-Aldrich) was added to balance the pH.
(§3) Briefly, the cells were washed with phosphate-buffered saline (PBS), scraped, resuspended in PBS, and centrifuged for 5 min at 150 rcf. The supernatant was discarded, the pellet was lysed with 0.1% m/v sodium deoxycholate (DC, in PBS) and incubated on ice for 20 min. Lysed cells were centrifuged for 5 min at 12,000 rcf to extract the soluble protein fraction. The supernatant protein concentration was measured using the Bio-Rad DC-protein assay following the manufacturer’s protocol. The cell lysates were kept at − 80 °C for longer-term storage.
(§4) It was performed in the white 96-well plates with total volume of reaction mixture 200 μL per well containing 100 μL cell lysate with protein content of 0.12 mg/mL (final 0.06 mg/mL), 100 μl GNE solution [1 M glycine–NaOH (pH 9.0), 1 mM EDTA] with the test chemical in MeOH (1% MeOH final concentration). The plate was incubated for 30 min with gentle shaking at 37 °C.
For the data analysis, GraphPad Prism™ (GraphPad Software, San Diego, USA) was used for curve-fitting and IC50 or IC20 calculation. The signal (RLUs or fluorescence intensity) from the wells-containing cell lysate and chemical was background corrected (average RLUs or fluorescence intensity of lysate-free wells), then normalized to the solvent control (100% activity).

[6] = system: peroxidase activity in HEK293T cell lysate (no TPO expression); experiment: TPO luminol (Lumi) assay, HEK293T cell lysate
Procedure: The HEK293T (RRID:CVCL_0063), a human embryonal kidney SV40 transformed immortalized cell line obtained from ATCC, as well as the derived TPO-transfected HEK293T cell line, were cultured in DMEM High Glucose media (Biosera, BioTech) supplemented with 10% FBS.
as §2, §3, §4
(§5) For the data analysis, GraphPad Prism™ (GraphPad Software, San Diego, USA) was used for curve-fitting and IC50 or IC20 calculation. The signal (RLUs or fluorescence intensity) from the wells-containing cell lysate and chemical was background corrected (average RLUs or fluorescence intensity of lysate-free wells), then normalized to the solvent control (100% activity). Fold change of signal intensity was calculated by dividing the signal from cell lysate-containing wells by the signal from the background (average of cell lysate-free wells).

[7] = system: peroxidase activity (TPO) in Nthy-ori 3-1 cell lysate; experiment: TPO luminol (Lumi) assay, Nthy-ori 3-1 cell lysate; conditions: read-out: Lumi assay IC50, Nthy-ori 3-1
Procedure: as §3, §4, §5

[8] = system: peroxidase activity (TPO) in Nthy-ori 3-1 cell lysate
Procedure: as §3, §4, §5

[9] = system: peroxidase activity (TPO) in Nthy-ori 3-1 cell lysate; parameters: method as in Jomaa et al. (2015); conditions: ref Jomaa et al. (2015); read-out: Lumi assay IC50, Nthy-ori 3-1; cited from earlier work
TPO (Nthy-ori 3-1) = system: TPO (Nthy-ori 3-1); parameters: method as in Jomaa et al. (2015); conditions: ref Jomaa et al. (2015); read-out: AUR assay IC50, Nthy-ori 3-1; cited from earlier work
[10] = IC20 shown where IC50 was not reached, read-out: AUR assay IC20, HEK-TPOA7
[11] = current study, n ≥ 3, hematin pre-treated cells, NA = not active up to the highest tested concentration, read-out: Lumi assay IC50, HEK-TPOA7
[12] = IC50, AUR assay, H2O2 300uM, HEK-TPOA7 lyzate, n=2, unit not given in Table S6
[13] = lysate of cells with hematin pre-treatment, unit inferred, read-out: IC50, HEK-TPOA7, AUR assay, hematin +
[14] = read-out: IC50, FRTL-5, Lumi assay, hematin +, lysate of cells with hematin pre-treatment, unit inferred
[15] = read-out: Lumi assay IC50, FRTL-5, current study, n ≥ 3, NA = not active up to the highest tested concentration
[16] = read-out: Lumi assay IC50, HEK293T, current study, PTU n = 2
[17] = current study, n ≥ 3, pH 7.2, 40 µM H2O2, NA = not active up to the highest tested concentration, read-out: AUR assay IC50, HEK-TPOA7
[18] = lysate of cells without hematin pre-treatment, unit inferred, read-out: IC50, HEK-TPOA7, AUR assay, hematin -
[19] = lysate of cells without hematin pre-treatment, unit inferred, read-out: IC50, HEK-TPOA7, Lumi assay, hematin -
[20] = read-out: IC50, AUR assay, H2O2 300uM, HEK-TPOA7 lyzate, n=2, unit not given in Table S6

Compound	IC50 [2, 11] [µM]	IC50 [1, 12] [µM]	IC50 [1, 13] [µM]	IC50 (TPO (CHO-TPO)) [µM]	IC50 (TPO (LentiX-TPO)) [µM]	IC50 [5, 14] [µM]	IC50 [5, 15] [µM]	IC50 [6, 16] [µM]	IC50 [1, 17] [µM]	IC50 [1, 18] [µM]	IC50 [8] [µM]	also measured
Cc1cc(NS(=O)(=O)c2ccc(N)cc2)no1 [SMX, Sulfamethoxazol, reference compound]	–	–	–	–	–	–	–	–	–	–	–	IC20 ([1]; HEK-TPOA7 lyzate, n=2, starred chemicals, unit not given in Table S6, read-out: IC20, AUR assay, H2O2 300uM): 140 µM; IC20 [1, 10]: 101 µM
O=C(O)C(F)(F)C(F)(F)C(F)(F)C(F)(F)C(F)(F)C(F)(F)C(F)(F)F [PFOA, Perfluorooctanoic acid]	–	–	–	–	–	–	–	–	–	–	–	IC20 ([2]; IC20 shown where IC50 was not reached): 110 µM; IC20 [1, 10]: 5.15 µM
S=C1NCCN1 [ETU, Ethylene thiourea]	–	–	–	–	–	–	–	–	–	–	–	TPO inhibition in rat thyroid-based AUR assay (ToxCast) [3]: quantifiable IC50
Oc1cc(Cl)ccc1Oc1ccc(Cl)cc1Cl [TCS, Triclosan]	38.4	165	197	> 253	> 253	46.2	67.9	47.8	–	–	–	IC50 ([1]; HEK-TPOA7, pH 8.8 (SD = 14), read-out: AUR assay IC50 at higher pH): 72.7 µM; solubility (equivalent) [4]: 34.5 µM; IC50 [7]: 51 µM
Cn1cc[nH]c1=S [MMI, Methimazole, reference compound]	3.24	1.33	1.5	0.49	0.23	3.59	3.69	–	1.5	1.12	3.91	IC50 [9]: 4 µM; IC50 (TPO (Nthy-ori 3-1)): 2.7 µM
CC(C)(c1cc(Br)c(O)c(Br)c1)c1cc(Br)c(O)c(Br)c1 [TBBPA, Tetrabromobisphenol A]	90.9	–	8.65	–	–	190	130	64.4	8.65	8.2	–	IC50 [2, 19]: 107 µM; IC50 [1, 20]: 6.5 µM; IC50 ([6]; read-out: IC50, HEK293T, Lumi assay, hematin +, lysate of cells with hematin pre-treatment, unit inferred): 87.1 µM; IC50 [7]: 77.2 µM
Oc1cccc(O)c1 [RSC, Resorcinol]	17.9	0.61	0.36	0.05	0.06	13.9	15.7	–	0.358	0.36	13.8	IC50 ([1]; IC50, AUR assay, H2O2 40uM, HEK-TPOA7 lyzate, n=2, unit not given in Table S6): 0.36 µM
CC(C)(c1ccc(O)cc1)c1ccc(O)cc1 [BPA, Bisphenol A]	130	10.9	10.6	–	–	166	143	122	–	8.29	120	IC50 [2, 19]: 107 µM
O=C(c1ccc(O)cc1O)c1ccc(O)cc1O [BP2, 2,2′-4,4′-tetrahydroxy benzophenone]	20.2	–	0.56	0.2	0.24	31.4	29.6	–	0.56	0.48	38.5	IC50 [1, 20]: 0.64 µM
CCCc1cc(=O)[nH]c(=S)[nH]1 [PTU, 6-propylthiouracil, reference compound]	–	–	–	4.9	10.4	12.5	13.2	18.9	–	–	11.7	IC50 [9]: 16.4 µM; IC50 (TPO (Nthy-ori 3-1)): 35.2 µM
